Assay results: patent publication US8785457B2 (Cellzome Limited, priority 2009, dated 2014)
Read-outs that look alike come from different tables or passages of the source.

Experiments:
[1] = target: T1, mTOR (Homo sapiens, UniProt P42345); experiment: mTOR kinobeads assay (competitive binding in Jurkat cell lysate, immunodetection); conditions: kinobeads assay
T1 construct: endogenous in cells; host or cells: Jurkat, clone E6-1 (ATCC TIB-152) cell lysate
Procedure, shortened: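 IC50 derived from dose-response curves of mTOR captured on immobilized phenylmorpholin-chromen beads, detected by antibody dot blot with infrared fluorescence.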

[2] = target: T2, PI3 Kgamma (PI3 Kg) (Homo sapiens, UniProt P48736); experiment: kinobeads assay, PI3Kgamma; format: binding; conditions: kinobeads assay, Table 6; read-out: Inhibition values (IC50) PI3Kg
T2 construct: endogenous in cells; host or cells: cell lysate
Procedure, shortened: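 Competitive pull-down in cell lysate: compound (various conc.) + phenylmorpholin-chromen affinity beads, incubate, separate beads, elute. Multiplexed immunodetection of bound kinases; dose-response fit → IC50.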

[3] = Table 6, read-out: Inhibition values (IC50) mTOR
[4] = Table 4, read-out: Inhibition values (IC50) mTor

T2 sequence (P48736 whole entry): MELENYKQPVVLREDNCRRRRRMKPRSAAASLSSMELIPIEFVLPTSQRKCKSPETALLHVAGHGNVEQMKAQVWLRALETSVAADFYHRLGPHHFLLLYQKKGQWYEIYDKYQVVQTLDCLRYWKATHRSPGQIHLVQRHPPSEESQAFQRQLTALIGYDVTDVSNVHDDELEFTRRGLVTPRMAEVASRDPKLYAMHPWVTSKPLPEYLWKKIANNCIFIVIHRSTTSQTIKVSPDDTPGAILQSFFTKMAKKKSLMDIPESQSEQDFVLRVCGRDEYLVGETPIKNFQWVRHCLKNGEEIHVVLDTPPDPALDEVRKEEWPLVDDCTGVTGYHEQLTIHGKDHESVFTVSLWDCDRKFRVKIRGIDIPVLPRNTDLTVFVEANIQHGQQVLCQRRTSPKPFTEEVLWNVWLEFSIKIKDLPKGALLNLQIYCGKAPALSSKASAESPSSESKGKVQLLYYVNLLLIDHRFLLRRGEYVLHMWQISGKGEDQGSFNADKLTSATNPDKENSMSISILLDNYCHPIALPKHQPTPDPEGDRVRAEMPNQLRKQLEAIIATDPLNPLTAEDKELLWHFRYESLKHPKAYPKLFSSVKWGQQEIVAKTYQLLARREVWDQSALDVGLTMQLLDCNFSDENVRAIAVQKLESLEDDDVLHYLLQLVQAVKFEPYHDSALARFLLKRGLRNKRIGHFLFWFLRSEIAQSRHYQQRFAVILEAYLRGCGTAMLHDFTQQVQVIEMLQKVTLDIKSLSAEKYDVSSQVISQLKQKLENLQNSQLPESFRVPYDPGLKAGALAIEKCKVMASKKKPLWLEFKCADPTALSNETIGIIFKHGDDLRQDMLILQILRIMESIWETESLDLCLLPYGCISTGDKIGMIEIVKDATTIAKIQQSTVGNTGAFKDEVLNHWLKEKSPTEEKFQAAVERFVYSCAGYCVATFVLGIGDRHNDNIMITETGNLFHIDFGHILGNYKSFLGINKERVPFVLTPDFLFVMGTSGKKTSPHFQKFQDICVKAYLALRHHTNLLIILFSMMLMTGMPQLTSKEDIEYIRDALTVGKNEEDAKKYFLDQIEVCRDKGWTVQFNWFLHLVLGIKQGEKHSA

Row | SMILES | IC50 [1, 3] [nM] | IC50 [2] [nM] | IC50 [1, 4] [nM]
1 | CCNC(=O)Nc1ccc(-c2nc3c(c(N4CCOC[C@@H]4C)n2)CN(CC(C)C)C3)cc1 [Example 66, (S)-1-ethyl-3-(4-(6-isobutyl-4-(3-methylmorpholino)-6,7-dihydro-5H-pyrrolo[3,4-d]pyrimidin-2-yl)phenyl)urea] | < 100 | > 10000 | 
2 | COC(=O)N1Cc2nc(-c3ccc(NC(=O)NC4CC4)cc3)nc(N3CCOC[C@@H]3C)c2C1 [Example 86, (S)-methyl 2-(4-(3-cyclopropylureido)phenyl)-4-(3-methylmorpholino)-5H-pyrrolo[3,4-d]pyrimidine-6(7H)-carboxylate] | < 100 | > 10000 | 
3 | CCNC(=O)Nc1ccc(-c2nc3c(c(N4CCOC[C@@H]4C)n2)CCN(C(=O)C(C)(C)C)C3)cc1 [Example 58, (S)-1-ethyl-3-(4-(4-(3-methylmorpholino)-7-pivaloyl-5,6,7,8-tetrahydropyrido[3,4-d]pyrimidin-2-yl)phenyl)urea] | < 100 | > 10000 | < 100
4 | CC(C)C(=O)N1CCc2c(nc(-c3ccc(NC(=O)NC4CC4)cc3)nc2N2CCOC[C@@H]2C)C1 [Example 61, (S)-1-cyclopropyl-3-(4-(7-isobutyryl-4-(3-methylmorpholino)-5,6,7,8-tetrahydropyrido[3,4-d]pyrimidin-2-yl)phenyl)urea] | < 100 | > 10000 | < 100
5 | C[C@H]1COCCN1c1nc(-c2ccc(NC(N)=O)cc2)nc2c1CN(C)C2 [Example 71, (S)-1-(4-(6-methyl-4-(3-methylmorpholino)-6,7-dihydro-5H-pyrrolo[3,4-d]pyrimidin-2-yl)phenyl)urea] | < 100 | 1000 to 10000 | 
6 | COC(=O)N1CCc2c(nc(-c3ccc(NC(=O)NC4CC4)cc3)nc2N2CCOC[C@@H]2C)C1 [Example 83, (S)-methyl 2-(4-(3-cyclopropylureido)phenyl)-4-(3-methylmorpholino)-5,6-dihydropyrido[3,4-d]pyrimidine-7(8H)-carboxylate] | < 100 | > 10000 | 

Continued, values first:

Row | IC50 [1, 3] [nM] | IC50 [2] [nM] | IC50 [1, 4] [nM] | SMILES
7 | 100 to 1000 | > 10000 |  | CCNC(=O)Nc1ccc(-c2nc3c(c(N4CCOC[C@@H]4C)n2)CCN(C)C3)c(F)c1 [Example 110, (S)-1-ethyl-3-(3-fluoro-4-(7-methyl-4-(3-methylmorpholino)-5,6,7,8-tetrahydropyrido[3,4-d]pyrimidin-2-yl)phenyl)urea]
8 | 100 to 1000 | > 10000 |  | CCNC(=O)Nc1ccc(-c2nc3c(c(N4CCOC[C@@H]4C)n2)CN(C2CCN(C(=O)OC)CC2)C3)cc1F [Example 122, (S)-methyl 4-(2-(4-(3-ethylureido)-3-fluorophenyl)-4-(3-methylmorpholino)-5H-pyrrolo[3,4-d]pyrimidin-6(7H)-yl)piperidine-1-carboxylate]
9 | 100 to 1000 | > 10000 |  | CCNC(=O)Nc1ncc(-c2nc3c(c(N4CCOC[C@@H]4C)n2)CCN(C)C3)s1 [Example 106, (S)-1-ethyl-3-(5-(7-methyl-4-(3-methylmorpholino)-5,6,7,8-tetrahydropyrido[3,4-d]pyrimidin-2-yl)thiazol-2-yl)urea]
10 | < 100 | > 10000 |  | CCNC(=O)Nc1ccc(-c2nc3c(c(N4CCOC[C@@H]4C)n2)CN(C(=O)OCC)C3)cc1 [Example 90, (S)-ethyl 2-(4-(3-ethylureido)phenyl)-4-(3-methylmorpholino)-5H-pyrrolo[3,4-d]pyrimidine-6(7H)-carboxylate]
11 | < 100 | > 10000 |  | CCNC(=O)Nc1ccc(-c2nc3c(c(N4CCOCC4)n2)CCN(C(C)=O)C3)cc1 [Example 97, 1-(4-(7-acetyl-4-morpholino-5,6,7,8-tetrahydropyrido[3,4-d]pyrimidin-2-yl)phenyl)-3-ethylurea]
12 | < 100 | > 10000 |  | CCNC(=O)N1CCc2c(nc(-c3ccc(NC(=O)NC4CC4)cc3)nc2N2CCOC[C@@H]2C)C1 [Example 88, (S)-2-(4-(3-cyclopropylureido)phenyl)-N-ethyl-4-(3-methylmorpholino)-5,6-dihydropyrido[3,4-d]pyrimidine-7(8H)-carboxamide]
